Among the data in patent US20060052384A1, “Aryl piperidine derivatives as inducers of ldl-receptor expression for the treatment of hypercholesterolemia” (priority 2002, published 2006) are EC50 and melting point values, retold here.

The structures appear in SMILES notation.

The subject of series [1] is LDL-r promoter and the luciferase reporter gene in HepG2 cells. Put plainly: In vitro assay: induction of luciferase activity in HepG2 cells stably transfected with LDL-r promoter/luciferase reporter construct. The series is classed as cell-based. The following applies: Homo sapiens, 24 hours incubation, RPMI medium with 2% lipoprotein-deficient serum, tested 10^-6M to 10^-9M. How it is done: HepG2 cells, stably transfected with a construct comprising the LDL-r promoter and the luciferase reporter gene, were seeded at 50,000 cells/well in 96 well plates. After 1 day cells were incubated with compounds for 24 hours in RPMI medium containing 2% of lipoprotein-deficient serum. Compounds were tested from 10^−6M to 10^−9M. Cell lysates were prepared and the luciferase activity was measured by the luciferase assay system (Promega). Induction of luciferase activity was calculated taking untreated cells as control. The ED50 of each compounds was determined compared to the ED50 of an internal standard.

By EC50 is commonly meant the concentration that produces a half-maximal response. Lower therefore signals a more potent agent. For `Cn1cc(C2CCN(CCCCNC(=O)c3ccc(-c4ccc(C(F)(F)F)cc4)c(CO)c3)CC2)c2ccccc21` [Example 1], the EC50 in series [1] turned out to be 7 nM.
As usually defined, the melting point is the temperature of the solid-liquid transition. `CCOc1cc(CC)ccc1C1CCN(CCCCNC(=O)c2sc(-c3ccc(C(F)(F)F)cc3)nc2CO)CC1` [Example 4, 4-Hydroxymethyl-2-(4-trifluoromethyl-phenyl)-thiazole-5-carboxylic acid {4-[4-(2-ethoxy-4-ethyl-phenyl)-piperidin-1-yl]-butyl}-amide]: the melting point is 150 °C.
Still for that read-out and setting: under `COc1c(C2CCN(CCCCNC(=O)c3sc(-c4ccc(C#N)cc4)nc3CO)CC2)ccc2c1CCCC2` [Example 7, 2-(4-Cyano-phenyl)-hydroxymethyl-thiazole-5-carboxylic acid {4-[4-(1-methoxy-5,6,7,8-tetrahydro-naphthalen-2-yl)-piperidin-1-yl]-butyl}-amide] stands 212 °C; under `COc1c(C2CCN(CCCCNC(=O)c3sc(-c4ccc(Cl)cc4)nc3C)CC2)ccc2c1CCCC2` [Example 12, 2-(4-Chloro-phenyl)4-methyl-thiazole-5-carboxylic acid {4-[4-(1-methoxy-5,6,7,8-tetrahydro-naphthalen-2-yl)-piperidin-1-yl]-butyl}-amide], 151 °C.
`COc1c(C2CCN(CCCCNC(=O)c3[nH]nc(-c4ccc(C#N)cc4)c3CO)CC2)ccc2c1CCCC2` [Example 14]: the melting point lay in the range of 185 to 186 °C.
On to `COc1c(C2CCN(CCCCNC(=O)c3oc(-c4ccc(C#N)cc4)nc3C)CC2)ccc2c1CCCC2` [Example 15, 2-(4-Cyano-phenyl)-4-methyl-oxazole-5-carboxylic acid {4-[4-(1-methoxy-5,6,7,8-tetrahydro-naphthalen-2-yl)-piperidin-1-yl]-butyl}amide], for which the melting point came out at 157 °C.
Turning to `COc1c(C2CCN(CCCCNC(=O)c3oc(-c4ccc(C#N)cc4)nc3CO)CC2)ccc2c1CCCC2` [Example 16, 2-(4-Cyano-phenyl)-4-hydroxymethyl-oxazole-5-carboxylic acid {4-[4-(1-methoxy-5,6,7,8-tetrahydro-naphthalen-2-yl)-piperidin-1-yl]-butyl}-amide], the melting point lay in the range of 160 to 162 °C.
Still for that read-out and setting: then `COc1c(C2CCN(CCCCNC(=O)c3ccc(-c4ccc(C(=O)N(C)C)cc4)cc3)CC2)ccc2c1CCCC2` [Example 19], with 170 °C.
Molecule `COc1c(C2CCN(CCCCNC(=O)c3ccc(-c4ccc(C(C)=O)s4)cc3)CC2)ccc2c1CCCC2` [Example 20, 4-(5-Acetyl-thiophen-2-yl)-N-{4-[4-(1-methoxy-5,6,7,8-tetrahydro-naphthalen-2-yl)-piperidin-1-yl]-butyl}-benzamide] returned a melting point of 216 to 218 °C.
Consider `COc1c(C2CCN(CCCCNC(=O)c3ccc(-c4ccc(NS(=O)(=O)CC(F)(F)F)cc4)cc3)CC2)ccc2c1CCCC2` [Example 22, 4′-(2,2,2-Trifluoro-ethanesulfonylamino)-biphenyl4-carboxylic acid {4-[4-(1-methoxy 5,6,7,8-tetrahydro-naphthalen-2-yl)-piperidin-1-yl]-butyl}-amide], for which the melting point was in the range of 182 to 184 °C.
Take `COc1c(C2CCN(CCCCNC(=O)c3ccc(-c4ccc(Cl)s4)cc3)CC2)ccc2c1CCCC2` [Example 23, 4-(5-Chloro-thiophen-2-yl)-N-{4-[4-(1-methoxy-5,6,7,8-tetrahydro-naphthalen-2-yl)-piperidin-1-yl]-butyl}-benzamide]: the melting point is 185 to 187 °C.
Molecule `COc1c(C2CCN(CCCCNC(=O)c3ccc(-c4ccc(NS(=O)(=O)C(C)C)cc4)cc3)CC2)ccc2c1CCCC2` [Example 24] displayed a melting point of 188 to 190 °C.
The same measure, in the same setting: then `COc1c(C2CCN(CCCCNC(=O)c3ccc(-c4ccc(Cl)cc4)c(O)c3)CC2)ccc2c1CCCC2` [Example 25], with 199 °C.
In the case of `COc1c(C2CCN(CCCCNC(=O)c3ccc(-c4ccc(C(=O)C(F)(F)F)cc4)cc3)CC2)ccc2c1CCCC2` [Example 26, 4′-(2,2,2-Trifluoro-acetyl)-biphenyl-4-carboxylic acid {4-[4-(1-methoxy-5,6,7,8-tetrahydro-naphthalen-2-yl)-piperidin-1-yl]-butyl}-amide], the melting point is 197 to 199 °C.
In the case of `COc1c(C2CCN(CCCCNC(=O)c3ccc(-c4ccc(NC(=O)C(F)(F)F)cc4)cc3)CC2)ccc2c1CCCC2` [Example 29, 4′-(2,2,2-Trifluoro-acetylamino)-biphenyl-4-carboxylic acid {4-[4-(1-methoxy-5,6,7,8-tetrahydro-naphthalen-2-yl)-piperidin-1-yl]-butyl}-amide], the melting point fell in the range of 226 to 228 °C.
As to `COc1c(C2CCN(CCCCNC(=O)c3ccc(-c4ccc(C#N)cn4)cc3)CC2)ccc2c1CCCC2` [Example 30, 4-(5-Cyano-pyridin-2-yl)-N-{4-[4-(1-methoxy-5,6,7,8-tetrahydro-naphthalen-2-yl)-piperidin-1-yl]-butyl}-benzamide], the melting point was in the range of 220 to 222 °C.
`COc1c(C2CCN(CCCCNC(=O)c3ccc(-c4ccsc4C#N)cc3)CC2)ccc2c1CCCC2` [Example 31, 4-(2-Cyano-thiophen-3-yl)-N-{4-[4-(1-methoxy-5,6,7,8-tetrahydro-naphthalen-2-yl)-piperidin-1-yl]-butyl}-benzamide] gave a melting point of 236 to 238 °C.
Regarding `COc1c(C2CCN(CCCCNC(=O)c3ccc(-c4ccc(Cl)cn4)cc3)CC2)ccc2c1CCCC2` [Example 32, 4-(5-Chloro-pyridin-2-yl)-N-{4-[4-(1-methoxy-5,6,7,8-tetrahydro-naphthalen-2-yl)-piperidin-1-yl]-butyl}-benzamide], the melting point was 213 to 215 °C. In series [1], the EC50 stood at 10 nM.
As for `COc1c(C2CCN(CCCCNC(=O)c3ccc(-c4csc(C(C)=O)c4)cc3)CC2)ccc2c1CCCC2` [Example 33, 4-(5-Acetyl-thiophen-3-yl)-N-{4-[4-(1-methoxy-5,6,7,8-tetrahydro-naphthalen-2-yl)-piperidin-1-yl]-butyl}-benzamide], the melting point fell in the range of 208 to 210 °C.
In turn, `COc1c(C2CCN(CCCCNC(=O)c3ccc(-c4ccc(Cl)nc4)cc3)CC2)ccc2c1CCCC2` [Example 34] gave a melting point of 202 to 204 °C.
As for `COc1c(C2CCN(CCCCNC(=O)c3ccc(-c4ccc(Cl)nn4)cc3)CC2)ccc2c1CCCC2` [Example 35, 4-(6-Chloro-pyridazin-3-yl)-N-{4-[4-(1-methoxy-5,6,7,8-tetrahydro-naphthalen-2-yl)-piperidin-1-yl]-butyl}-benzamide], the melting point lay within 192 to 194 °C.
The molecule `COc1c(C2CCN(CCCCNC(=O)c3ccc(-c4ccc(C#N)o4)cc3)CC2)ccc2c1CCCC2` [Example 36] displayed a melting point of 180 to 182 °C.
The molecule `COc1c(C2CCN(CCCCNC(=O)c3ccc(-c4ccc(Cl)cc4)cn3)CC2)ccc2c1CCCC2` [Example 37, 5-(4-Chloro-phenyl)-pyridine-2-carboxylic acid {4-[4-(1-methoxy-5,6,7,8-tetrahydro-naphthalen-2-yl)piperidin-1-yl]-butyl}-amide] had a melting point of 103 to 105 °C.
In turn, `COc1c(C2CCN(CCCCNC(=O)c3ccc(-c4ccc(Cl)cc4)nc3)CC2)ccc2c1CCCC2` [Example 38, 6-(4-Chloro-phenyl)-N-{4-[4-(1-methoxy-5,6,7,8-tetrahydro-naphthalen-2-yl)-piperidin-1-yl]-butyl}-nicotinamide] returned a melting point of 184 to 186 °C.
Regarding `COc1c(C2CCN(CCCCNC(=O)c3ccc(-c4ccc(C#N)cc4)nc3)CC2)ccc2c1CCCC2` [Example 39, 6-(4-Cyano-phenyl)-N-{4-[4-(1-methoxy-5,6,7,8-tetrahydro-naphthalen-2-yl)-piperidin-1-yl]-butyl}-nicotinamide], the melting point fell in the range of 166 to 168 °C.
Molecule `COc1c(C2CCN(CCCCNC(=O)c3ccc(-c4ccc(Cl)s4)nc3)CC2)ccc2c1CCCC2` [Example 40, 6-(5-Chloro-thiophen-2-yl)-N-{4-[4-(1-methoxy-5,6,7,8-tetrahydro-naphthalen-2-yl)-piperidin-1-yl]-butyl}-nicotinamide] gave a melting point of 175 to 177 °C.
The same measure, in the same setting: then `COc1c(C2CCN(CCCCNC(=O)c3ccc(-c4ccc(C#N)cc4)cn3)CC2)ccc2c1CCCC2` [Example 41, 5-(4-Cyano-phenyl)-pyridine-2-carboxylic acid {4-[4-(1-methoxy-5,6,7,8-tetrahydro-naphthalen-2-yl)-piperidin-1-yl]-butyl}-amide], with 140 °C; and `COc1c(C2CCN(CCCCNC(=O)c3ccc(-c4ccc(C#N)s4)nc3)CC2)ccc2c1CCCC2` [Example 42, 6-(5-Cyano-thiophen-2-yl)-N-{4-[4-(1-methoxy-5,6,7,8-tetrahydro-naphthalen-2-yl)-piperidin-1-yl]-butyl}-nicotinamide], with 186 to 188 °C; and `COc1c(C2CCN(CCCCNC(=O)c3ccc(-c4ccc(C#N)nc4)cc3)CC2)ccc2c1CCCC2` [Example 43, 4-(6-Cyano-pyridin-3-yl)-N-{4-[4-(1-methoxy-5,6,7,8-tetrahydro-naphthalen-2-yl)-piperidin-1-yl]-butyl}-benzamide], with 179 to 181 °C.
Regarding `COc1c(C2CCN(CCCCNC(=O)c3ccc(-c4cnc(C#N)nc4)cc3)CC2)ccc2c1CCCC2` [Example 44, 4-(2-Cyano-pyrimidin-5-yl)-N-{4-[4-(1-methoxy-5,6,7,8-tetrahydro-naphthalen-2-yl)-piperidin-1-yl]-butyl}-benzamide], the melting point was 202 °C.
